Experimental data: patent US10584128B2, “Bicyclic dihydropyrimidine-carboxamide derivatives as Rho-Kinase inhibitors” (CHIESI FARMACEUTICI S.p.A., priority 2016, dated 2020)

Tests used:
Rho kinase 2 = Rho kinase 2 (Homo sapiens, UniProt O75116); assay: In vitro Rho kinase inhibitory activity assay (ADP-Glo kit, Myelin Basic Protein substrate); type: biochemical; conditions: 10 μM ATP, 25° C., read-out: ROCK2 inhibitory activity (Ki, range of activity)
Procedure: (§1) The effectiveness of compounds of the present invention to inhibit Rho kinase activity can be determined in a 10 μl assay containing 40 mM Tris pH7.5, 20 mM MgCl2 0.1 mg/ml BSA, 50 μM DTT and 2.5 μM peptide substrate (Myelin Basic Protein) using an ADP-Glo kit (Promega). Compounds were dissolved in DMSO such that the final concentration of DMSO was 1% in the assay. All reactions/incubations are performed at 25° C. Compound (2 ul) and either Rho kinase 1 or 2 (4 μl) were mixed and incubated for 30 mins. Reactions were initiated by addition of ATP (4 μl) such that the final concentration of ATP in the assay was 10 μM. After a 1 hour incubation 10 μl of ADP-Glo Reagent was added and after a further 45 minute incubation 20 ul of Kinase Detection Buffer was added and the mixture incubated for a further 30 minutes. The luminescent signal was measured on a luminometer. […] Compounds were tested in dose-response format and the inhibition of kinase activity was calculated at each concentration of compound. To determine the IC50 (concentration of compound required to inhibit 50% of the enzyme activity) data were fit to a plot of % inhibition vs Log10 compound concentration using a sigmoidal fit with a variable slope and fixing the maximum to 100% and the minimum to 0%. To determine the Ki values the Cheng-Prusoff equation was utilized (Ki=IC50/(1+[S]/Km).

Rho kinase 1 = Rho kinase 1 (Homo sapiens, UniProt Q13464); assay: as above; type: biochemical; conditions: 10 μM ATP, 25° C., read-out: ROCK1 inhibitory activity (Ki, range of activity)
Sequence of Rho kinase 1 (Q13464 whole entry): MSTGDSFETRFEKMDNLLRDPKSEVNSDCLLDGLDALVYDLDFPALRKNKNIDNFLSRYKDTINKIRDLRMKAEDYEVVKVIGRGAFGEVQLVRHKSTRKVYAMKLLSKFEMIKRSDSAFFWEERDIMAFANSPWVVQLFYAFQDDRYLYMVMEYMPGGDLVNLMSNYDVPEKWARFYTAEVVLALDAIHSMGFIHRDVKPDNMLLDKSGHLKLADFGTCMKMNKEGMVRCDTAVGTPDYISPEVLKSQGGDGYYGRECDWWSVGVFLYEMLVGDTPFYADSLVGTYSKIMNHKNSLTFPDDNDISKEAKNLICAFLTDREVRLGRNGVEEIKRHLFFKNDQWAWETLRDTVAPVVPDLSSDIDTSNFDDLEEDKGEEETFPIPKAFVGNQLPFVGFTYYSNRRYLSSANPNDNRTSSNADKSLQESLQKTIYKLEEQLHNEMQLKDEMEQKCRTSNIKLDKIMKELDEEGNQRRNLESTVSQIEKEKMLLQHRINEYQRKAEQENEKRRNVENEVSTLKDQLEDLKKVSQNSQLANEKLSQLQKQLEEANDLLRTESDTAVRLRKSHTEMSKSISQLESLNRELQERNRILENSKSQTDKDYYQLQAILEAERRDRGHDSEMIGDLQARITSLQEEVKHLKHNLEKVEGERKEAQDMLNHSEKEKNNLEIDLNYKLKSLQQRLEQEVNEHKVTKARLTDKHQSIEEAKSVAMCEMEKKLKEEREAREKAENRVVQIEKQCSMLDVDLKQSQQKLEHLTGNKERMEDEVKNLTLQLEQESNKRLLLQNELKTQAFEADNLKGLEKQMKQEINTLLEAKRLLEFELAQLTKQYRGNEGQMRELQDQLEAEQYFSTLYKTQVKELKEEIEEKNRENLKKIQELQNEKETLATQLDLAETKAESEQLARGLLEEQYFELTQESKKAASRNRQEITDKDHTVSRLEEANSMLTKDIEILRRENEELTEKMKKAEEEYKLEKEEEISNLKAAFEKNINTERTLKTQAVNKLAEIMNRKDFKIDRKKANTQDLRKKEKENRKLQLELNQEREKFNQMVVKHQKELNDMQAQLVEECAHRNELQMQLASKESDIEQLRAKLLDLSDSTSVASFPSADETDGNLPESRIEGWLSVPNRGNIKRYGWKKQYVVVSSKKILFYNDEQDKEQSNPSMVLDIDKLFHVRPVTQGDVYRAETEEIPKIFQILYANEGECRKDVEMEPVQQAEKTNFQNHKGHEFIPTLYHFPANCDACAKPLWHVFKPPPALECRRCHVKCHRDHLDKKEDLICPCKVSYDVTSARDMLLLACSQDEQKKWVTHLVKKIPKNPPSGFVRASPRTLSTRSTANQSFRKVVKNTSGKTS
Procedure: as §1

Sequence of Rho kinase 2 (O75116 whole entry): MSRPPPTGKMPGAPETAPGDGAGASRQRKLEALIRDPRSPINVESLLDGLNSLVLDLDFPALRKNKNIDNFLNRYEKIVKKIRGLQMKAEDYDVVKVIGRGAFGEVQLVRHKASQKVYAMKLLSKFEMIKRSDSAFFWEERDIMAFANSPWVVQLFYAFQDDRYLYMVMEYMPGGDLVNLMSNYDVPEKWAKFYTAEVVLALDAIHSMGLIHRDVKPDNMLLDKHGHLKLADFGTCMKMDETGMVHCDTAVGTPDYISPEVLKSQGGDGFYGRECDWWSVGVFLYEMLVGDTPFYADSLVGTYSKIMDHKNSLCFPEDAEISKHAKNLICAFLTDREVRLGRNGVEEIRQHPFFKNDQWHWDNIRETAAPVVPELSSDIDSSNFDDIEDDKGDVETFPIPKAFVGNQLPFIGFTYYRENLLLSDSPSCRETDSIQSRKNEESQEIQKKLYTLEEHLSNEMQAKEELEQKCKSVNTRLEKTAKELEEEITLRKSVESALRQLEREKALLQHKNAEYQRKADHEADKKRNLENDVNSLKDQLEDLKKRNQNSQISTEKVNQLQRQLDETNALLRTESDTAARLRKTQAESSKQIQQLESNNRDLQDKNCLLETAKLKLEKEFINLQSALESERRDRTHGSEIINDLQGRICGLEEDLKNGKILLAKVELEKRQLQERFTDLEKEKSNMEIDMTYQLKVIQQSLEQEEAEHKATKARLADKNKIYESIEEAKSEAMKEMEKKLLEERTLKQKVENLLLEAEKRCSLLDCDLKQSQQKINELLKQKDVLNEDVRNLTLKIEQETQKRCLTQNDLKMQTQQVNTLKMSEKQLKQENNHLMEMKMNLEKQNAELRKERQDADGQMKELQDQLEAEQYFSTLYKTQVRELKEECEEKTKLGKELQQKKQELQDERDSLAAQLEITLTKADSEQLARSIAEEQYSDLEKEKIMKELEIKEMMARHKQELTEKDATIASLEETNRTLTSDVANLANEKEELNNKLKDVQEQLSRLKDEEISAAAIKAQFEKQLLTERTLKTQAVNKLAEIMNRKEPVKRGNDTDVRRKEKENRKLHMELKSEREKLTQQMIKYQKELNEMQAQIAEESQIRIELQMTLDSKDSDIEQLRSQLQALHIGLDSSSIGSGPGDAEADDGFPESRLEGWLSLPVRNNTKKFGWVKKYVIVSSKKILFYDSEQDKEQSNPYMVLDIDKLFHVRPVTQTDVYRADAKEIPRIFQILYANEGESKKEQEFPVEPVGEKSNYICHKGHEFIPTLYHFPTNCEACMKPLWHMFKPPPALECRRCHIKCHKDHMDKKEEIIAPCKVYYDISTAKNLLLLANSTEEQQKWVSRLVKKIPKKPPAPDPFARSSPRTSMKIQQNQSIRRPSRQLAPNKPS

SMILES | Ki (Rho kinase 2) [nM] | Ki (Rho kinase 1) [nM]
CC1=C(C(=O)Nc2ccc3cnccc3c2)C(c2ccc(C(F)(F)F)c(F)c2)n2nc(C(=O)NCCN3CCCCC3)cc2N1 (single isomer, unassigned) [77A] | > 500 | > 500
CC1=C(C(=O)Nc2ccc3cnccc3c2)C(c2ccc(C(F)(F)F)c(F)c2)n2nc(C(=O)NCCN3CCCCC3)cc2N1 (single isomer, unassigned) [77B] | < 50 | < 50
CC1=C(C(=O)Nc2ccc3cnccc3c2)C(c2ccc(C(F)(F)F)c(F)c2)n2nc(N)cc2N1 (single isomer, unassigned) [130A] | > 500 | > 500
CC1=C(C(=O)Nc2ccc3cnccc3c2)C(c2ccc(C(F)(F)F)c(F)c2)n2nc(N)cc2N1 (single isomer, unassigned) [130B] | < 50 | < 50
CC1=C(C(=O)Nc2ccc3cnccc3c2)C(c2ccc(C(F)(F)F)c(F)c2)n2nc(NC(=O)CCN3CCCCC3)cc2N1 (single isomer, unassigned) [131A] | < 50 | < 50
CC1=C(C(=O)Nc2ccc3cnccc3c2)C(c2ccc(C(F)(F)F)c(F)c2)n2nc(NC(=O)CCN3CCCCC3)cc2N1 (single isomer, unassigned) [131B] | < 50 | –
CC1=C(C(=O)Nc2ccc3cnccc3c2)C(c2ccc(C(F)(F)F)c(F)c2)n2nc(NC(=O)CN3CCCC3)cc2N1 (single isomer, unassigned) [132A] | < 50 | < 50
CC1=C(C(=O)Nc2ccc3cnccc3c2)C(c2ccc(C(F)(F)F)c(F)c2)n2nc(NC(=O)CN3CCCC3)cc2N1 (single isomer, unassigned) [132B] | > 500 | > 500
CC1=C(C(=O)Nc2ccc3cnccc3c2)C(c2ccc(C(F)(F)F)c(F)c2)n2nc(C3CCN(C(=O)CCN4CCCCC4)CC3)cc2N1 (single isomer, unassigned) [135A] | > 500 | > 500
CC1=C(C(=O)Nc2ccc3cnccc3c2)C(c2ccc(C(F)(F)F)c(F)c2)n2nc(C3CCN(C(=O)CCN4CCCCC4)CC3)cc2N1 (single isomer, unassigned) [135B] | < 50 | < 50
CCOC(=O)c1cc2n(n1)C(c1ccc(F)cc1)C(C(=O)Nc1ccc3[nH]ncc3c1)=C(C)N2 (single isomer, unassigned) [Example 4A, ethyl 6-((1H-indazol-5-yl)carbamoyl)-7-(4-fluorophenyl)-5-methyl-4,7-dihydropyrazolo[1,5-a]pyrimidine-2-carboxylate] | > 500 | > 500
CCOC(=O)c1cc2n(n1)C(c1ccc(F)cc1)C(C(=O)Nc1ccc3[nH]ncc3c1)=C(C)N2 (single isomer, unassigned) [Example 4B, ethyl 6-((1H-indazol-5-yl)carbamoyl)-7-(4-fluorophenyl)-5-methyl-4,7-dihydropyrazolo[1,5-a]pyrimidine-2-carboxylate] | < 50 | < 50
CCOC(=O)c1cc2n(n1)C(c1ccc(Cl)cc1F)C(C(=O)Nc1ccc3[nH]ncc3c1)=C(C)N2 (single isomer, unassigned) [Example 7A, ethyl 6-((1H-indazol-5-yl)carbamoyl)-7-(4-chloro-2-fluorophenyl)-5-methyl-4,7-dihydropyrazolo[1,5-a]pyrimidine-2-carboxylate] | < 50 | < 50
CC1=C(C(=O)Nc2ccc3cnccc3c2)C(c2ccc(C(F)(F)F)c(F)c2)n2nc(C(=O)NCCN3CCCCC3)nc2N1 (single isomer, unassigned) [Example 129b, 7-(3-fluoro-4-(trifluoromethyl)phenyl)-N6-(isoquinolin-6-yl)-5-methyl-N2-(2-(piperidin-1-yl)ethyl)-4,7-dihydro-[1,2,4]triazolo[1,5-a]pyrimidine-2,6-dicarboxamide] | – | < 50
